Tested on: 292921-168-R-J2-PDC complex spheroid growth
Assay: Anticancer human tumor 292921-168-R-J2-PDC patient-derived pancreatic carcinoma cell line growth inhibition [AhR]
Conditions: for IC50: curve of first compound; for viability, T/C: stronger effect = lower value
Procedure, shortened: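 Spheroids combined tumor cells with HUVEC endothelial cells and human MSCs as stroma. AhR antagonists were paired with standard or investigational drugs, each dosed in half-log steps down from near clinical Cmax, or from 10 microM where Cmax was unknown.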

[1] = second compound 0.1 µM, first compound 0.0316 µM
[2] = second compound 0.1 µM, first compound 0.1 µM
[3] = second compound 0.1 µM, first compound 0.316 µM
[4] = second compound 0.1 µM, first compound 1 µM
[5] = second compound 0.1 µM, first compound 3.16 µM
[6] = second compound 0.1 µM, first compound 10 µM
[7] = second compound 0.316 µM, first compound 0.0316 µM
[8] = second compound 0.316 µM, first compound 0.1 µM
[9] = second compound 0.316 µM, first compound 0.316 µM
[10] = second compound 0.316 µM, first compound 1 µM
[11] = second compound 0.316 µM, first compound 3.16 µM
[12] = second compound 0.316 µM, first compound 10 µM
[13] = second compound 1 µM, first compound 0.0316 µM
[14] = second compound 1 µM, first compound 0.1 µM
[15] = second compound 1 µM, first compound 0.316 µM
[16] = second compound 1 µM, first compound 1 µM
[17] = second compound 1 µM, first compound 3.16 µM
[18] = second compound 1 µM, first compound 10 µM
[19] = second compound 3.16 µM, first compound 0.0316 µM
[20] = second compound 3.16 µM, first compound 0.1 µM
[21] = second compound 3.16 µM, first compound 0.316 µM
[22] = second compound 3.16 µM, first compound 1 µM
[23] = second compound 3.16 µM, first compound 3.16 µM
[24] = second compound 3.16 µM, first compound 10 µM
[25] = second compound 10 µM, first compound 0.0316 µM
[26] = second compound 10 µM, first compound 0.1 µM
[27] = second compound 10 µM, first compound 0.316 µM
[28] = second compound 10 µM, first compound 1 µM
[29] = second compound 10 µM, first compound 3.16 µM
[30] = second compound 10 µM, first compound 10 µM
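Further: spheroids exposed to compounds for seven days after three days of growth.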

IC50 (second compound 0.1 µM) [µM] | IC50 (second compound 0.316 µM) [µM] | IC50 (second compound 1 µM) [µM] | IC50 (second compound 3.16 µM) [µM] | IC50 (second compound 10 µM) [µM] | SMILES | viability, T/C [1] [%] | viability, T/C [2] [%] | viability, T/C [3] [%] | viability, T/C [4] [%] | viability, T/C [5] [%] | viability, T/C [6] [%] | viability, T/C [7] [%] | viability, T/C [8] [%] | viability, T/C [9] [%] | viability, T/C [10] [%] | viability, T/C [11] [%] | viability, T/C [12] [%] | viability, T/C [13] [%] | viability, T/C [14] [%] | viability, T/C [15] [%] | further results
6.35 | 6.29 | 6.07 | 5.51 | 4.73 | CC1(C)CCC(CN2CCN(c3ccc(C(=O)NS(=O)(=O)c4ccc(NCC5CCOCC5)c([N+](=O)[O-])c4)c(Oc4cnc5[nH]ccc5c4)c3)CC2)=C(c2ccc(Cl)cc2)C1 + Cc1ccccc1N=Nc1ccc(NC(=O)c2ccnn2C)c(C)c1 | 91.2 | 90.5 | 109 | 103 | 112 | 16.8 | 88.3 | 89.3 | 97.4 | 96 | 108 | 19 | 96.8 | 101 | 77.8 | viability, T/C [16]: 95.1%; viability, T/C [17]: 100%; viability, T/C [18]: 16.2%; viability, T/C [19]: 79.8%; viability, T/C [20]: 77.3%; viability, T/C [21]: 75.3%; viability, T/C [22]: 84%; viability, T/C [23]: 96.4%; viability, T/C [24]: 15.1%; viability, T/C [25]: 65.4%; viability, T/C [26]: 63.5%; viability, T/C [27]: 53.9%; viability, T/C [28]: 72.5%; viability, T/C [29]: 77.6%; viability, T/C [30]: 19.3%
2.76 | 2.52 | 2.08 | 1.81 | 1.48 | CC1COCCN1c1cc(C2(S(C)(=N)=O)CC2)nc(-c2ccnc3[nH]ccc23)n1 (stereo not given) + Cc1ccccc1N=Nc1ccc(NC(=O)c2ccnn2C)c(C)c1 | 89.7 | 96 | 93.9 | 83.1 | 45.6 | 21 | 98.8 | 84.3 | 88.3 | 79.5 | 42.6 | 24.4 | 86.4 | 83.7 | 85.4 | viability, T/C [16]: 69.8%; viability, T/C [17]: 38.6%; viability, T/C [18]: 19.2%; viability, T/C [19]: 80%; viability, T/C [20]: 78.8%; viability, T/C [21]: 68%; viability, T/C [22]: 65.6%; viability, T/C [23]: 37.4%; viability, T/C [24]: 16.7%; viability, T/C [25]: 66.9%; viability, T/C [26]: 55.7%; viability, T/C [27]: 58.2%; viability, T/C [28]: 58.3%; viability, T/C [29]: 34.3%; viability, T/C [30]: 21.5%

Reference: PubChem BioAssay AID1918994 (Molecular Pharmacology Branch, DTP, NCI, 2023)
